Source: patent US20220280661A1, “GLUCOCORTICOID RECEPTOR RADIOLIGANDS AND METHODS FOR THEIR PREPARATION AND USE” (The Regents of the University of California, priority 2019, published 2022)
Read-outs that look alike come from different tables or passages of the source. Each block holds one compound with its values, some of them ahead of it.

Assays:
[1] = Plasma protein binding, rapid equilibrium dialysis, mouse plasma; type: in vitro ADME; conditions: mouse, plasma, pH 7.4, mouse plasma
Method: (§1) Plasma Protein Binding Studies. The rapid equilibrium dialysis (RED) device inserts along with a Teflon base plate (Pierce, Rockford, Ill.) were used for the binding studies. The pH of the human or mouse plasma was adjusted to 7.4 prior to the experiment. DMSO stocks (1 mM) were spiked into the plasma to make a final concentration of 2 μM. The spiked plasma solutions (300 μL) were placed into the sample chamber (indicated by the red ring); and 500 μL of PBS buffer, pH 7.4, was placed into the adjacent chamber. The plate was incubated at 37° C. on an orbital shaker (250 rpm) for 4 hours.
(§2) After 4 hours, from the RED plate, aliquots (100 μL) were removed from each side of the insert (plasma and buffer) and dispensed into the 96-well plate. Subsequently, 100 μL of blank plasma was added to the buffer samples and 100 μL of blank buffer was added to all the collected plasma samples. 300 μL of quench solution (50% acetonitrile, 50% methanol, and 0.05% formic acid, warmed up at 37° C.) containing internal standards was added to each well. Plates were sealed, vortexed, and centrifuged at 4° C. for 15 minutes at 4000 rpm. The supernatant was transferred to fresh plates for LC/MS/MS analysis. The sample were analyzed on LC/MS/MS using an AB Sciex API 4000 instrument, coupled to a Shimadzu LC-20AD LC Pump system. Analytical samples were separated using a Waters Atlantis T3 dC18 reverse phase HPLC column (20 mm×2.1 mm) at a flow rate of 0.5 mL/min. The mobile phase consisted of 0.1% formic acid in water (solvent A) and 0.1% formic acid in acetonitrile (solvent B).
(§3) The percentage of test compound bound to protein was calculated by the following equations:
(§4) % Free=(Concentration in buffer chamber/Concentration in plasma chamber)×100%

plasma protein = assay: as above; type: in vitro ADME; conditions: plasma (rapid equilibrium dialysis device), pH 7.4, mouse plasma
Method: as §1, §2, §3, §4

GR = molecular target: T1, GR (Mus musculus, UniProt P06537); assay: 11C radiotracer biodistribution with dexamethasone or Dex-CD blocking; type: in vivo; conditions: 20 min after injection
T1 construct: from tissue; host or cells: tissues of C57BL6/J mice (intact or adrenalectomized), in vivo
T1 sequence (P06537 1-792): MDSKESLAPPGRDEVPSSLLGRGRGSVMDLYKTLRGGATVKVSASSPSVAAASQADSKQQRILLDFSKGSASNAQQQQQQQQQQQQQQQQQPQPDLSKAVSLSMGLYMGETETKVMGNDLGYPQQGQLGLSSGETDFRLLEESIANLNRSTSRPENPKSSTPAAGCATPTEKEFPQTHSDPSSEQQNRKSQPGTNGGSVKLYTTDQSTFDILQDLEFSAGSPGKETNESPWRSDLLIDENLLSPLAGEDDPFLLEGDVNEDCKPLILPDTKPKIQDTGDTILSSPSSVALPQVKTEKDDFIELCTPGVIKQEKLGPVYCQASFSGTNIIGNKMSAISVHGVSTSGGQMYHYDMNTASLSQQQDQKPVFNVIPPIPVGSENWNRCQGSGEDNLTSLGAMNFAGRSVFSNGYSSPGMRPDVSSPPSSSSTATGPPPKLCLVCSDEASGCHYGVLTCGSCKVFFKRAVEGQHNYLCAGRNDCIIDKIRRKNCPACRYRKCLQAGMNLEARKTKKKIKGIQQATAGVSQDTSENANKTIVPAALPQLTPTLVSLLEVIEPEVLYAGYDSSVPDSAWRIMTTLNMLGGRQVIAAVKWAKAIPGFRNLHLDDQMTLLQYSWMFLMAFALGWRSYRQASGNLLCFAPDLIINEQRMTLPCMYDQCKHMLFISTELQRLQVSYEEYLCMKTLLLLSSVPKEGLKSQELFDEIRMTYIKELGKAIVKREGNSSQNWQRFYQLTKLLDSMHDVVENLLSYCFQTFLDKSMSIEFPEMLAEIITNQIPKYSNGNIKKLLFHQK
Method: Animal Studies. All animal experiments were performed under the approval of the Institutional Animal Care and Use Committee (IACUC) at UCSF. C57BL6/J mice (4-6 weeks) were purchased from Charles River. All the mice were housed in a dedicated vivarium with free access to food and water. […] Adrenalectomized mice were purchased from Charles River and provided drinking water supplemented with NaCl (aq) per instructions until the time of the tracer biodistribution study.
Biodistribution Studies. Mice were euthanized after radiotracer (7.4-18.5 MBq in 100-150 μL) injection with CO2 (g) asphyxiation and dissected at dedicated time points post injection. The blood and tissues were collected, washed, dried, and weighed. The activity of each tissue was measured with a gamma counter. All data was decay corrected. PRISM software was used to express a percentage (% ID/g) of the injected dose per gram of tissue.
The P value indicates the result of an unpaired, two-tailed Student's t test between the respective treatment group and vehicle (n=5/group).
Table 10 summarizes biodistribution data collected 20 minutes after injection of ^11C-YJH02 among two treatment arms receiving vehicle or one intraperitoneal injection of the water-soluble dexamethasone-cyclodextrin complex at 10 mg/kg one hour prior to radiotracer administration. The P value indicates the result of an unpaired, two-tailed Student's t test between the respective treatment group and vehicle (n=5/group).

[2] = mice given Dex-CD 10 mg/kg intraperitoneal one hour prior to radiotracer
[3] = mice given dexamethasone 50 mg/kg via gavage once daily for three days

fraction unbound at 4 h, 2 μM ([1]; duplicate, read-out: % Bound (converted)): < 0.0001
fraction unbound at 4 h, 2 μM ([1]; read-out: % Bound Average (converted)): < 0.0001
recovery at 4 h, 2 μM (plasma protein): 100%
Structure (SMILES): COc1cccc2c1-c1ccc3c(c1C(Cc1ccc(F)cc1)O2)C(C)=CC(C)(C)N3 (racemic) [YJH08, 5-(4-fluorobenzyl)-10-methoxy-2,2,4-trimethyl-2,5-dihydro-1H-chromeno[3,4-f]quinoline]

Structure (SMILES): CC1=CC(C)(C)Nc2ccc3c(c21)C(Cc1ccc(F)cc1)Oc1cccc(O[11CH3])c1-3 (racemic) [(±)-^11C-YJH08]
radiotracer uptake, Adrenal (GR; [2]): 5.67 ± 2.6 % ID/g
radiotracer uptake, Blood (GR; [2]): 3.72 ± 0.2 % ID/g
radiotracer uptake, Bone (GR; [2]): 1.95 ± 1.6 % ID/g
radiotracer uptake, Brain (GR; [2]): 1.40 ± 0.2 % ID/g
radiotracer uptake, Brown Fat (GR; [2]): 8.68 ± 2.4 % ID/g
radiotracer uptake, Heart (GR; [2]): 5.95 ± 0.7 % ID/g
radiotracer uptake, Kidney (GR; [2]): 4.11 ± 0.4 % ID/g
radiotracer uptake, Lg. Int. (GR; [2]): 1.38 ± 0.3 % ID/g
radiotracer uptake, Liver (GR; [2]): 12.47 ± 0.8 % ID/g
radiotracer uptake, Lung (GR; [2]): 5.09 ± 0.7 % ID/g
radiotracer uptake, Muscle (GR; [2]): 1.16 ± 0.2 % ID/g
radiotracer uptake, Pancreas (GR; [2]): 3.14 ± 0.3 % ID/g
radiotracer uptake, Sm. Int. (GR; [2]): 15.72 ± 3.2 % ID/g
radiotracer uptake, Spleen (GR; [2]): 5.72 ± 0.7 % ID/g
radiotracer uptake, Stomach (GR; [2]): 1.79 ± 0.8 % ID/g
radiotracer uptake, Adrenal (GR; [3]): 9.24 ± 3.6 % ID/g
radiotracer uptake, Blood (GR; [3]): 4.58 ± 1.9 % ID/g
radiotracer uptake, Bone (GR; [3]): 1.06 ± 0.4 % ID/g
radiotracer uptake, Brain (GR; [3]): 1.02 ± 0.3 % ID/g
radiotracer uptake, Brown Fat (GR; [3]): 4.58 ± 2.3 % ID/g
radiotracer uptake, Heart (GR; [3]): 3.86 ± 1.6 % ID/g
radiotracer uptake, Kidney (GR; [3]): 2.96 ± 0.9 % ID/g
radiotracer uptake, Lg. Int. (GR; [3]): 1.01 ± 0.5 % ID/g
radiotracer uptake, Liver (GR; [3]): 5.22 ± 2.7 % ID/g
radiotracer uptake, Lung (GR; [3]): 3.39 ± 1.6 % ID/g
radiotracer uptake, Muscle (GR; [3]): 0.84 ± 0.4 % ID/g
radiotracer uptake, Pancreas (GR; [3]): 1.52 ± 0.7 % ID/g
radiotracer uptake, Sm. Int. (GR; [3]): 30.24 ± 12.7 % ID/g
radiotracer uptake, Spleen (GR; [3]): 3.71 ± 1.5 % ID/g
radiotracer uptake, Stomach (GR; [3]): 0.71 ± 0.2 % ID/g
radiotracer uptake, Adrenal (GR; mice given vehicle): 17.63 ± 2.9 % ID/g
radiotracer uptake, Blood (GR; mice given vehicle): 4.82 ± 0.4 % ID/g
radiotracer uptake, Bone (GR; mice given vehicle): 1.46 ± 0.5 % ID/g
radiotracer uptake, Brain (GR; mice given vehicle): 1.98 ± 0.1 % ID/g
radiotracer uptake, Brown Fat (GR; mice given vehicle): 9.52 ± 0.9 % ID/g
radiotracer uptake, Heart (GR; mice given vehicle): 7.06 ± 0.8 % ID/g
radiotracer uptake, Kidney (GR; mice given vehicle): 7.22 ± 0.8 % ID/g
radiotracer uptake, Lg. Int. (GR; mice given vehicle): 1.70 ± 0.3 % ID/g
radiotracer uptake, Liver (GR; mice given vehicle): 16.25 ± 0.8 % ID/g
radiotracer uptake, Lung (GR; mice given vehicle): 6.80 ± 0.7 % ID/g
radiotracer uptake, Muscle (GR; mice given vehicle): 1.85 ± 0.1 % ID/g
radiotracer uptake, Pancreas (GR; mice given vehicle): 4.64 ± 0.1 % ID/g
radiotracer uptake, Sm. Int. (GR; mice given vehicle): 28.72 ± 14.5 % ID/g
radiotracer uptake, Spleen (GR; mice given vehicle): 7.28 ± 1.8 % ID/g
radiotracer uptake, Stomach (GR; mice given vehicle): 2.62 ± 1.5 % ID/g
